Laboratory results reported in publication PMC5698418 (Nature Communications, 2017).
Counter-ions that a name gives are not always drawn. Like-named read-outs stand apart in the source and are kept apart here.

Tested on: BDNF-induced nuclear Arc expression in primary cortical neurons
Test: Chemogenomic screen: high-content image-based assay of BDNF-induced nuclear Arc expression (96-well)
Format: cell-based, mouse
Description: To increase the throughput of our pharmacological screening for modulators of Arc, the above mentioned assay was adapted to cultures of mouse primary cortical neurons in 96-well plates.
All 319 compounds were initially tested at a final concentration of 16.7 µM with three biological replicates.
Screening of compounds in the chemogenomic library was carried out using DIV13 primary forebrain cortical neurons cultured on poly-L-lysine/laminin-coated 96-well plates (Ibidi USA, Madison, WI). Cells were seeded at a density of 30,000 cells per well and treated with the compound library and BDNF according to the experimental design presented in Fig. 3a. After experimental treatment, cells were processed for Arc and acetyl-H3K9 immunocytochemistry according to the protocol described above. Both antigens (Arc and acetyl-H3K9) were imaged using an IN Cell Analyzer 6000 imaging system and a ×40 objective. […] High-throughput quantification of nuclear Arc immunofluorescence signal was performed in a similar fashion than the low-throughput procedure described above but with the exception that acetyl-H3K9 was used as a nuclear mask to guide the automated quantification of nuclear Arc immunofluorescence signal.

[1] = BDNF-induced nuclear Arc expression, primary cortical neurons, chemogenomic screen
[2] = chemogenomic (SMART) screen, BDNF-induced nuclear Arc expression, primary cortical neurons, BDNF control 19.5
[3] = nuclear Arc-positive cells relative to DMSO + BDNF control, negative values = decrease
[4] = nuclear Arc-positive cells relative to DMSO control (BDNF), negative = decrease

Structure (SMILES) | Percentage of cell with nuclear Arc immunostaining above 2σ threshold [1] | Percentage of cell with nuclear Arc immunostaining above 2σ threshold [2] | Fold-change — Normalized to DMSO control (BDNF) [3] | further results
CN(C)CCCN1c2ccccc2Sc2ccc(Cl)cc21 [Chlorpromazine] | 0.0% | – | – | –
CN(C)CC/C=C1/c2ccccc2Sc2ccc(Cl)cc21 [Chlorprothixene] | 1.0% | – | – | –
CN(C)CCCC1(c2ccc(F)cc2)OCc2cc(C#N)ccc21 (stereo not shown) [Citalopram] | 6.1% | – | – | –
COc1cc(N)c(Cl)cc1C(=O)NC1CCN(Cc2ccccc2)CC1 [Clebopride] | – | 25.8% | 1.3 fold | –
C[N+]12CCC(CC1)C(OC(=O)C(O)(c1ccccc1)c1ccccc1)C2 (stereo not shown) [Clidinium bromide] | – | 24.4% | 1.2 fold | –
Clc1cccc(Cl)c1N=C1NCCN1 [Clonidine] | – | 12.2% | – | –
C#CCN(C)CCCOc1ccc(Cl)cc1Cl [Clorgyline] | 7.4% | – | – | Fold-change — Normalized to DMSO control (BDNF) [4]: -2.6 fold
C=C[C@@]1(C)CC(=O)[C@]2(O)[C@@]3(C)[C@@H](O)CCC(C)(C)[C@@H]3[C@H](OC(=O)CCN(C)C)[C@H](OC(C)=O)[C@@]2(C)O1.Cl [Colforsin dapropate hydrochloride] | – | 21.7% | 1.1 fold | –
CN1C(=O)CC[C@H]1c1cccnc1 [Cotinine] | – | 30.8% | 1.6 fold | –
CN(C)CCC=C1c2ccccc2C=Cc2ccccc21 [Cyclobenzaprine] | – | 14.1% | – | –
NS(=O)(=O)c1cc2c(cc1Cl)NC(C1CC3C=CC1C3)NS2(=O)=O (stereo not shown) [Cyclothiazide] | 8.4% | – | – | –
Nc1ccn([C@@H]2O[C@H](CO)[C@@H](O)[C@H]2O)c(=O)n1 [Cytidine] | – | 34.8% | 1.8 fold | –
O=c1cccc2n1C[C@@H]1CNC[C@H]2C1 [Cytisine] | – | – | – | Percentage of cell with nuclear Arc immunostaining above 2σ threshold: 15.7%
Clc1ccc(C23CNCC2C3)cc1Cl (stereo not shown) [DOV-216,303] | – | – | – | Percentage of cell with nuclear Arc immunostaining above 2σ threshold: 6.5%; Fold-change — Normalized to DMSO control (BDNF) [4]: -3.0 fold
O=c1c(-c2ccc(O)cc2)coc2cc(O)ccc12 [Daidzein] | – | 40.8% | 2.1 fold | –
CNCCCN1c2ccccc2CCc2ccccc21 [Desipramine] | 11.3% | – | – | –
CN(C)CC(c1ccc(O)cc1)C1(O)CCCCC1 (stereo not shown) [Desvenlafaxine] | – | 33.0% | 1.7 fold | –
COc1ccc2c(c1)[C@]13CCCC[C@@H]1[C@H](C2)N(C)CC3 [Dextromethorphan] | – | 19.7% | 1.0 fold | –
CN1C[C@H](C(=O)N[C@]2(C)O[C@@]3(O)[C@@H]4CCCN4C(=O)[C@H](Cc4ccccc4)N3C2=O)C[C@@H]2c3cccc4[nH]cc(c34)C[C@H]21.CN1C[C@H](C(=O)N[C@]2(C)O[C@@]3(O)[C@@H]4CCCN4C(=O)[C@H](Cc4ccccc4)N3C2=O)C[C@@H]2c3cccc4[nH]cc(c34)C[C@H]21.O=C(O)C(O)C(O)C(=O)O [Dihydroergotamine tartrate] | – | 22.0% | 1.1 fold | –
C[C@]12N[C@H](Cc3ccccc31)c1ccccc12 [Dizocilpine] | – | – | 1.1 fold | Percentage of cell with nuclear Arc immunostaining above 2σ threshold: 21.2%

Structure (SMILES) | Percentage of cell with nuclear Arc immunostaining above 2σ threshold [1] | Percentage of cell with nuclear Arc immunostaining above 2σ threshold [2] | Fold-change — Normalized to DMSO control (BDNF) [3] | further results
O=c1[nH]c2ccccc2n1CCCN1CCC(n2c(=O)[nH]c3cc(Cl)ccc32)CC1 [Domperidone] | – | 15.3% | – | –
CCN[C@H]1C[C@H](C)S(=O)(=O)c2sc(S(N)(=O)=O)cc21 [Dorzolamide] | 7.1% | – | – | –
CN(C)CC/C=C1\c2ccccc2CSc2ccccc21 [Dosulepin] | – | 16.7% | – | –
CN(C)CCC=C1c2ccccc2COc2ccccc21 [Doxepin] | 10.2% | – | – | –
Cn1c(=O)c2c(ncn2CC(O)CO)n(C)c1=O (stereo not shown) [Dyphylline] | – | 17.0% | – | –
Cc1[nH]c2ccc(Cl)cc2c1C1=CCNCC1 [EMD-386,088] | – | – | 1.2 fold | Percentage of cell with nuclear Arc immunostaining above 2σ threshold: 22.7%
CN1CCC[C@@H]1Cc1c[nH]c2ccc(CCS(=O)(=O)c3ccccc3)cc12 [Eletriptan] | 3.7% | – | – | –
CCOC(=O)[C@H](CCc1ccccc1)N[C@@H](C)C(=O)N1CCC[C@H]1C(=O)O [Enalapril] | – | 22.4% | 1.1 fold | –
CCN(CC)C(=O)/C(C#N)=C/c1cc(O)c(O)c([N+](=O)[O-])c1 [Entacapone] | – | 27.9% | 1.4 fold | –
CN(C)CCC[C@@]1(c2ccc(F)cc2)OCc2cc(C#N)ccc21 [Escitalopram oxalate] | – | 26.3% | 1.4 fold | –
CCOc1ccc(Cc2nccc3cc(OCC)c(OCC)cc23)cc1OCC [Ethaverine] | 1.3% | – | – | –
CCN(CC)C(C)CN1c2ccccc2Sc2ccccc21 (stereo not shown) [Ethopropazine] | – | 27.2% | 1.4 fold | –
CCC1(C)CC(=O)NC1=O (stereo not shown) [Ethosuximide] | – | 21.8% | 1.1 fold | –
CCOc1ccc2nc(S(N)(=O)=O)sc2c1 [Ethoxzolamide] | 8.4% | – | – | –
CCNC1=Nc2ccc(Cl)cc2C(C)(c2ccccc2)O1 (stereo not shown) [Etifoxine] | – | – | – | Percentage of cell with nuclear Arc immunostaining above 2σ threshold: 0.0%
CCOC(=O)c1cncn1[C@H](C)c1ccccc1 [Etomidate] | – | – | – | Percentage of cell with nuclear Arc immunostaining above 2σ threshold: 13.0%
Cc1nc(C(=O)NCC(=O)O)c(O)c2ccc(Oc3ccccc3)cc12 [FG-4592] | – | 26.8% | 1.4 fold | –
CC(C)c1c(CN(C)C(C)Cc2ccccc2)n(C)n(-c2ccccc2)c1=O (stereo not shown) [Famprofazone] | – | – | – | Percentage of cell with nuclear Arc immunostaining above 2σ threshold: 18.1%
O=c1[nH]c2cc(C(F)(F)F)c(N3CCOCC3)cc2n(CP(=O)(O)O)c1=O [Fanapanel] | 8.8% | – | – | –
